Source: patent US20230167105A1, “BCL-2 PROTEIN INHIBITORS” (Recurium IP Holdings, LLC, priority 2020, published 2023)

Experiments:
MOLT-4 cells = assay: MOLT-4 Cell Proliferation Assay (CellTiter-Glo); assay type: cell-based; details: Homo sapiens, 72 h, read-out: MOLT-4 CTG IC50
Method: Cell proliferation was measured using the CellTiter-Glo® Luminescent Cell Viability Assay. The assay involved the addition of a single reagent (CellTiter-Glo® Reagent) directly to cells cultured in serum-supplemented medium. MOLT-4 cells (ATCC, CRL-1582) were cultured according to ATCC recommendations and were seeded at 50,000 cells per well.
Each compound evaluated was prepared as a DMSO stock solution (10 mM). Compounds were tested in duplicate on each plate, with a 10-point serial dilution curve (1:3 dilution). The highest compound concentration was 10 μM (final), with a 0.1% final DMSO concentration. Plates were then incubated at 37° C., 5% CO2 for 72 h, cell plates were equilibrated at rt for approximately 30 mins. An equi-volume amount of CellTiter-Glo® Reagent (100 μL) was added to each well. Plates were mixed for 2 mins on an orbital shaker to induce cell lysis and then incubated at rt for 10 mins to stabilize the luminescent signal. Luminescence was recorded using a Envision plate reader according to CellTiter-Glo protocol. IC50 of each compound was calculated using GraphPad Prism by nonlinear regression analysis.

Bcl-xL = biological target: T1, Bcl-xL (Homo sapiens, UniProt Q07817); assay: Protein Degradation Assay in MOLT-4 Cells (Western blot); assay type: cell-based
T1 construct: endogenous in cells; host or cells: MOLT-4 (ATCC CRL-1582)
T1 sequence (Q07817 whole entry): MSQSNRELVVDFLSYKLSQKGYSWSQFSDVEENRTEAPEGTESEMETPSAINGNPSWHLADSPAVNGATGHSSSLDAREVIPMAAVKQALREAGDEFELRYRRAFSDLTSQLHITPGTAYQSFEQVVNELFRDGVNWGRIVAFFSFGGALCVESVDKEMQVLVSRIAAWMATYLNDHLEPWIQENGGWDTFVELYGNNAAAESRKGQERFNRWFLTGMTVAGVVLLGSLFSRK
Method: MOLT-4 (ATCC, CRL-1582) (FIGS. 7,8) were incubated with vehicle or 50 nM concentrations of the indicated compounds for 16 hours. For proteasome inhibition, MOLT-4 cells (250,000 cells/well) were pretreated with 1 μM of MG132 for 1 hour before the addition of 100 nM of the indicated compounds for 16 h. After treatment, the cells were harvested in RIPA lysis buffer supplemented with 1% Phosphatase Inhibitor and Protease Inhibitor Cocktail. An equal amount of protein (10 μg/lane) from each cell extract was resolved on a 4-12% Bis-Tris gel. Proteins were transferred using iBlot 2 Transfer Stacks. The membranes were blocked with 5% nonfat milk in TBS-T buffer (50 mM Tris-HCL, pH 7.6; 150 mM NaCl; and 0.05% Tween) and probed with primary antibodies (1:1000 dilution) overnight at 4° C. After three washes with TBS-T (10 min/wash), the membranes were incubated with an appropriate peroxidase-conjugated secondary antibody (Cell Signaling Technology, USA) for 1 hour at rt. After three washes with TBS-T, the proteins of interest were detected with ECL Western Blotting Detection Reagents and captured with an Azure imaging system. The band intensities were determined using ImageJ software and normalized to loading control β-actin or GAPDH. The primary antibodies Bcl-xL (#2762), Bcl-2 (#2872s), and GAPDH (#5174) were purchased from Cell Signaling Technology.

IC50 (MOLT-4 cells)	SMILES	also measured
50 to 150 nM	Cc1ncsc1-c1ccc([C@H](C)NC(=O)[C@@H]2C[C@@H](O)CN2C(=O)[C@@H](NC(=O)CCCCCC(=O)N2CCN(CC[C@H](CSc3ccccc3)Nc3ccc(S(=O)(=O)NC(=O)c4ccc(N5CCN(CC6=C(C78CC(C(F)F)(C7)C8)CC(C)(C)CC6)CC5)cc4)cc3S(=O)(=O)C(F)(F)F)CC2)C(C)(C)C)cc1 [Example 6, (2S,4R)-1-((S)-2-(7-(4-((R)-3-((4-(N-(4-(4-((2-(3-(difluoromethyl)bicyclo[1.1.1]pentan-1-yl)-4,4-dimethylcyclohex-1-en-1-yl)methyl)piperazin-1-yl)benzoyl)sulfamoyl)-2-((trifluoromethyl)sulfonyl)phenyl)amino)-4-(phenylthio)butyl)piperazin-1-yl)-7-oxoheptanamido)-3,3-dimethylbutanoyl)-4-hydroxy-N—((S)-1-(4-(4-methylthiazol-5-yl)phenyl)ethyl)pyrrolidine-2-carboxamide]	BCL-xL degradation in MOLT-4 cells (Bcl-xL; 50 nM compound, 16 hours, FIGS. 7 and 8): induce BCL-xL degradation; BCL-xL degradation in MOLT-4 cells, dose dependence (Bcl-xL; FIG. 9): can induce BCL-xL degradation in MOLT-4 cells in a dose dependent manner; Bcl-xL degradation with proteasome inhibitor MG132 (Bcl-xL; MOLT-4 cells pretreated with 1 μM MG132 for 1 hour, then 100 nM compound for 16 h, FIG. 10): can be inhibited by proteasome inhibitor MG132
≥ 150 nM	Cc1ncsc1-c1ccc([C@H](C)NC(=O)[C@@H]2C[C@@H](O)CN2C(=O)[C@@H](NC(=O)CCCCCN2CCN(CC[C@H](CSc3ccccc3)Nc3ccc(S(=O)(=O)NC(=O)c4ccc(N5CCN(CC6=C(C78CC(C)(C7)C8)CC(C)(C)CC6)CC5)cc4)cc3S(=O)(=O)C(F)(F)F)CC2)C(C)(C)C)cc1 [Example 26, (2S,4R)-1-((S)-2-(6-(4-((R)-3-((4-(N-(4-(4-((4,4-dimethyl-2-(3-methylbicyclo[1.1.1]pentan-1-yl)cyclohex-1-en-1-yl)methyl)piperazin-1-yl)benzoyl)sulfamoyl)-2-((trifluoromethyl)sulfonyl)phenyl)amino)-4-(phenylthio)butyl)piperazin-1-yl)hexanamido)-3,3-dimethylbutanoyl)-4-hydroxy-N—((S)-1-(4-(4-methylthiazol-5-yl)phenyl)ethyl)pyrrolidine-2-carboxamide]	–
≤ 50 nM	CC1(C)CCC(CN2CCN(c3ccc(C(=O)NS(=O)(=O)c4ccc(N[C@H](CCN5CCN(CCCC#Cc6cccc7c6CN(C6CCC(=O)NC6=O)C7=O)CC5)CSc5ccccc5)c(S(=O)(=O)C(F)(F)F)c4)cc3)CC2)=C(C23CC(C(F)F)(C2)C3)C1 (stereo partly drawn) [Example 29, 4-(4-((2-(3-(difluoromethyl)bicyclo[1.1.1]pentan-1-yl)-4,4-dimethylcyclohex-1-en-1-yl)methyl)piperazin-1-yl)-N-((4-(((2R)-4-(4-(5-(2-(2,6-dioxopiperidin-3-yl)-1-oxoisoindolin-4-yl)pent-4-yn-1-yl)piperazin-1-yl)-1-(phenylthio)butan-2-yl)amino)-3-((trifluoromethyl)sulfonyl)phenyl)sulfonyl)benzamide]	–
≥ 150 nM	Cc1ncsc1-c1ccc(CNC(=O)[C@@H]2C[C@@H](O)CN2C(=O)[C@@H](NC(=O)CCCCCC(=O)N2CCN(CC[C@H](CSc3ccccc3)Nc3ccc(S(=O)(=O)NC(=O)c4ccc(N5CCN(CC6=C(C78CC(C(F)F)(C7)C8)CC(C)(C)CC6)CC5)cc4)cc3S(=O)(=O)C(F)(F)F)CC2)C(C)(C)C)cc1 [Example 45, (2S,4R)-1-((S)-2-(7-(4-((R)-3-((4-(N-(4-(4-((2-(3-(difluoromethyl)bicyclo[1.1.1]pentan-1-yl)-4,4-dimethylcyclohex-1-en-1-yl)methyl)piperazin-1-yl)benzoyl)sulfamoyl)-2-((trifluoromethyl)sulfonyl)phenyl)amino)-4-(phenylthio)butyl)piperazin-1-yl)-7-oxoheptanamido)-3,3-dimethylbutanoyl)-4-hydroxy-N-(4-(4-methylthiazol-5-yl)benzyl)pyrrolidine-2-carboxamide]	–
≥ 150 nM	Cc1ncsc1-c1ccc([C@H](CC(=O)NCCCCCC(=O)N2CCN(CC[C@H](CSc3ccccc3)Nc3ccc(S(=O)(=O)NC(=O)c4ccc(N5CCN(CC6=C(C78CC(C(F)F)(C7)C8)CC(C)(C)CC6)CC5)cc4)cc3S(=O)(=O)C(F)(F)F)CC2)NC(=O)[C@@H]2C[C@@H](O)CN2C(=O)[C@@H](NC(=O)C2(F)CC2)C(C)(C)C)cc1 [Example 47]	–
≥ 150 nM	Cc1ncsc1-c1ccc([C@H](CC(=O)NCCCCCCN2CCN(CC[C@H](CSc3ccccc3)Nc3ccc(S(=O)(=O)NC(=O)c4ccc(N5CCN(CC6=C(C78CC(C(F)F)(C7)C8)CC(C)(C)CC6)CC5)cc4)cc3S(=O)(=O)C(F)(F)F)CC2)NC(=O)[C@@H]2C[C@@H](O)CN2C(=O)[C@@H](NC(=O)C2(F)CC2)C(C)(C)C)cc1 [Example 48]	–
≥ 150 nM	Cc1ncsc1-c1ccc([C@H](CC(=O)NCCCCCCN(C)CC[C@H](CSc2ccccc2)Nc2ccc(S(=O)(=O)NC(=O)c3ccc(N4CCN(CC5=C(C67CC(C(F)F)(C6)C7)CC(C)(C)CC5)CC4)cc3)cc2S(=O)(=O)C(F)(F)F)NC(=O)[C@@H]2C[C@@H](O)CN2C(=O)[C@@H](NC(=O)C2(F)CC2)C(C)(C)C)cc1 [Example 49, (2S,4R)—N-[(1S)-3-[6-[[(3R)-3-[4-[[4-[4-[[2-[3-(difluoromethyl)-1-bicyclo[1.1.1]pentanyl]-4,4-dimethyl-cyclohexen-1-yl]methyl]piperazin-1-yl]benzoyl]sulfamoyl]-2-(trifluoromethylsulfonyl)anilino]-4-phenylsulfanyl-butyl]-methyl-amino]hexylamino]-1-[4-(4-methylthiazol-5-yl)phenyl]-3-oxo-propyl]-1-[(2S)-2-[(1-fluorocyclopropanecarbonyl)amino]-3,3-dimethyl-butanoyl]-4-hydroxy-pyrrolidine-2-carboxamide]	–
≥ 150 nM	Cc1cc([C@H](C(=O)N2C[C@H](O)C[C@H]2C(=O)N[C@@H](CC(=O)NCCCCCC(=O)N2CCN(CC[C@H](CSc3ccccc3)Nc3ccc(S(=O)(=O)NC(=O)c4ccc(N5CCN(CC6=C(C78CC(C(F)F)(C7)C8)CC(C)(C)CC6)CC5)cc4)cc3S(=O)(=O)C(F)(F)F)CC2)c2ccc(-c3scnc3C)cc2)C(C)C)on1 [Example 50, (2S,4R)—N—((S)-3-((6-(4-((R)-3-((4-(N-(4-(4-((2-(3-(difluoromethyl)bicyclo[1.1.1]pentan-1-yl)-4,4-dimethylcyclohex-1-en-1-yl)methyl)piperazin-1-yl)benzoyl)sulfamoyl)-2-((trifluoromethyl)sulfonyl)phenyl)amino)-4-(phenylthio)butyl)piperazin-1-yl)-6-oxohexyl)amino)-1-(4-(4-methylthiazol-5-yl)phenyl)-3-oxopropyl)-4-hydroxy-1-((R)-3-methyl-2-(3-methylisoxazol-5-yl)butanoyl)pyrrolidine-2-carboxamide]	–
≥ 150 nM	Cc1cc([C@@H](C(=O)N2C[C@H](O)C[C@H]2C(=O)N[C@@H](CC(=O)NCCCCCC(=O)N2CCN(CC[C@H](CSc3ccccc3)Nc3ccc(S(=O)(=O)NC(=O)c4ccc(N5CCN(CC6=C(C78CC(C(F)F)(C7)C8)CC(C)(C)CC6)CC5)cc4)cc3S(=O)(=O)C(F)(F)F)CC2)c2ccc(-c3scnc3C)cc2)C(C)C)on1 [Example 56, (2S,4R)—N—((S)-3-((6-(4-((R)-3-((4-(N-(4-(4-((2-(3-(difluoromethyl)bicyclo[1.1.1]pentan-1-yl)-4,4-dimethylcyclohex-1-en-1-yl)methyl)piperazin-1-yl)benzoyl)sulfamoyl)-2-((trifluoromethyl)sulfonyl)phenyl)amino)-4-(phenylthio)butyl)piperazin-1-yl)-6-oxohexyl)amino)-1-(4-(4-methylthiazol-5-yl)phenyl)-3-oxopropyl)-4-hydroxy-1-((S)-3-methyl-2-(3-methylisoxazol-5-yl)butanoyl)pyrrolidine-2-carboxamide]	–
